# pIC50: −log10 of the molar value.
# Tests used:
# CCRF-CEM = assay: Growth inhibition of human CCRF-CEM cells after 48 hrs by sulforhodamine B assay; assay type: functional
# HL-60 = assay: Growth inhibition of human HL-60(TB) cells after 48 hrs by sulforhodamine B assay; assay type: functional; conditions: HL-60, 48 h
# K562 = assay: Growth inhibition of human K562 cells after 48 hrs by sulforhodamine B assay; assay type: functional; conditions: K562, 48 h
# MOLT-4 = assay: Growth inhibition of human MOLT4 cells after 48 hrs by sulforhodamine B assay; assay type: functional; conditions: MOLT-4, 48 h
# [1] = Growth inhibition of human […] cells after 48 hrs by sulforhodamine B assay; assay type: functional
# SR = assay: Growth inhibition of human SR cells after 48 hrs by sulforhodamine B assay; assay type: functional
# A549 = assay: Growth inhibition of human A549 cells after 48 hrs by sulforhodamine B assay; assay type: functional; conditions: A549, 48 h
# HCC 2998 = assay: Growth inhibition of human HCC2998 cells after 48 hrs by sulforhodamine B assay; assay type: functional; conditions: HCC 2998, 48 h
# HCT-116 = assay: Growth inhibition of human HCT116 cells after 48 hrs by sulforhodamine B assay; assay type: functional; conditions: HCT-116, 48 h
# HCT-15 = assay: Growth inhibition of human HCT15 cells after 48 hrs by sulforhodamine B assay; assay type: functional; conditions: HCT-15, 48 h
# HT-29 = assay: Growth inhibition of human HT-29 cells after 48 hrs by sulforhodamine B assay; assay type: functional; conditions: HT-29, 48 h
# KM12 = assay: Growth inhibition of human KM12 cells after 48 hrs by sulforhodamine B assay; assay type: functional; conditions: KM12, 48 h
# SW-620 = assay: Growth inhibition of human SW620 cells after 48 hrs by sulforhodamine B assay; assay type: functional; conditions: SW-620, 48 h
# SF-268 = assay: Growth inhibition of human SF268 cells after 48 hrs by sulforhodamine B assay; assay type: functional; conditions: SF-268, 48 h
# SNB-19 = assay: Growth inhibition of human SNB19 cells after 48 hrs by sulforhodamine B assay; assay type: functional; conditions: SNB-19, 48 h
# SNB-75 = assay: Growth inhibition of human SNB75 cells after 48 hrs by sulforhodamine B assay; assay type: functional; conditions: SNB-75, 48 h
# U-251 = assay: Growth inhibition of human U251 cells after 48 hrs by sulforhodamine B assay; assay type: functional; conditions: U-251, 48 h
# LOX IMVI = assay: Growth inhibition of human LOXIMVI cells after 48 hrs by sulforhodamine B assay; assay type: functional
# M14 = assay: Growth inhibition of human M14 cells after 48 hrs by sulforhodamine B assay; assay type: functional; conditions: M14, 48 h
# Malme-3M = assay: Growth inhibition of human MALME-3M cells after 48 hrs by sulforhodamine B assay; assay type: functional
# SK-MEL-2 = assay: Growth inhibition of human SK-MEL-2 cells after 48 hrs by sulforhodamine B assay; assay type: functional; conditions: SK-MEL-2, 48 h
# SK-MEL-28 = assay: Growth inhibition of human SK-MEL-28 cells after 48 hrs by sulforhodamine B assay; assay type: functional; conditions: SK-MEL-28, 48 h
# SK-MEL-5 = assay: Growth inhibition of human SK-MEL-5 cells after 48 hrs by sulforhodamine B assay; assay type: functional; conditions: SK-MEL-5, 48 h
# UACC-257 = assay: Growth inhibition of human UACC257 cells after 48 hrs by sulforhodamine B assay; assay type: functional; conditions: UACC-257, 48 h
# UACC-62 = assay: Growth inhibition of human UACC62 cells after 48 hrs by sulforhodamine B assay; assay type: functional; conditions: UACC-62, 48 h
# IGROV-1 = assay: Growth inhibition of human IGROV1 cells after 48 hrs by sulforhodamine B assay; assay type: functional; conditions: IGROV-1, 48 h
# OVCAR-3 = assay: Growth inhibition of human OVCAR-3 cells after 48 hrs by sulforhodamine B assay; assay type: functional; conditions: OVCAR-3, 48 h
# OVCAR-4 = assay: Growth inhibition of human OVCAR4 cells after 48 hrs by sulforhodamine B assay; assay type: functional; conditions: OVCAR-4, 48 h
# OVCAR-5 = assay: Growth inhibition of human OVCAR5 cells after 48 hrs by sulforhodamine B assay; assay type: functional; conditions: OVCAR-5, 48 h
# OVCAR-8 = assay: Growth inhibition of human OVCAR8 cells after 48 hrs by sulforhodamine B assay; assay type: functional; conditions: OVCAR-8, 48 h
# SK-OV-3 = assay: Growth inhibition of human SKOV3 cells after 48 hrs by sulforhodamine B assay; assay type: functional; conditions: SK-OV-3, 48 h
# 786-0 = assay: Growth inhibition of human 786-0 cells after 48 hrs by sulforhodamine B assay; assay type: functional; conditions: 786-0, 48 h
# A498 = assay: Growth inhibition of human A498 cells after 48 hrs by sulforhodamine B assay; assay type: functional; conditions: A498, 48 h
# ACHN = assay: Growth inhibition of human ACHN cells after 48 hrs by sulforhodamine B assay; assay type: functional
# CAKI-1 = assay: Growth inhibition of human Caki1 cells after 48 hrs by sulforhodamine B assay; assay type: functional; conditions: CAKI-1, 48 h
# RXF 393 = assay: Growth inhibition of human RXF393 cells after 48 hrs by sulforhodamine B assay; assay type: functional; conditions: RXF 393, 48 h
# SN12C = assay: Growth inhibition of human SN12C cells after 48 hrs by sulforhodamine B assay; assay type: functional
# TK-10 = assay: Growth inhibition of human TK10 cells after 48 hrs by sulforhodamine B assay; assay type: functional; conditions: TK-10, 48 h
# UO-31 = assay: Growth inhibition of human UO31 cells after 48 hrs by sulforhodamine B assay; assay type: functional; conditions: UO-31, 48 h
# PC-3 = assay: Growth inhibition of human PC3 cells after 48 hrs by sulforhodamine B assay; assay type: functional; conditions: PC-3, 48 h
# MCF7 = assay: Growth inhibition of human MCF7 cells after 48 hrs by sulforhodamine B assay; assay type: functional; conditions: MCF7, 48 h
# NCI/ADR-RES = assay: Growth inhibition of human NCI/ADR-RES cells after 48 hrs by sulforhodamine B assay; assay type: functional
# MDA-MB-231 = assay: Growth inhibition of human MDA-MB-231 cells after 48 hrs by sulforhodamine B assay; assay type: functional; conditions: MDA-MB-231, 48 h
# [2] = Growth inhibition of human Hs 578T cells after 48 hrs by sulforhodamine B assay; assay type: functional
# MDA-MB-435 = assay: Growth inhibition of human MDA-MB-435 cells after 48 hrs by sulforhodamine B assay; assay type: functional; conditions: MDA-MB-435, 48 h
# MDA-N = assay: Growth inhibition of human MDA-N cells after 48 hrs by sulforhodamine B assay; assay type: functional
# BT-549 = assay: Growth inhibition of human BT549 cells after 48 hrs by sulforhodamine B assay; assay type: functional; conditions: BT-549, 48 h
# T47D = assay: Growth inhibition of human T47D cells after 48 hrs by sulforhodamine B assay; assay type: functional
# Plasmodium falciparum [3] = assay: Antimalarial activity after 72 hrs against chloroquine-sensitive Plasmodium falciparum D6 infected in erythrocytes by LDH assay; assay type: functional, organism-based; conditions: D6, 72 h
# [4] = Selectivity index, ratio of TC50 for african green monkey (Cercopithecus aethiops) Vero cells to IC50 for chloroquine-sensitive Plasmodium falciparum D6; assay type: toxicity, cell-based
# Plasmodium falciparum [5] = assay: Antimalarial activity after 72 hrs against chloroquine-resistant Plasmodium falciparum W2 infected erythrocytes by LDH assay; assay type: functional, organism-based; conditions: W2, 72 h
# [6] = Selectivity index, ratio of TC50 for african green monkey (Cercopithecus aethiops) Vero cells to IC50 for chloroquine-resistant Plasmodium falciparum W2; assay type: toxicity, cell-based
# [7] = Cytotoxicity against african green monkey Vero cells after 48 hrs by neutral red assay; assay type: cell-based; conditions: chlorocebus sabaeus, read-out: TC50
# EKVX = assay: Growth inhibition of human EKVX cells after 48 hrs by sulforhodamine B assay; assay type: functional
# HOP-62 = assay: Growth inhibition of human HOP62 cells after 48 hrs by sulforhodamine B assay; assay type: functional; conditions: HOP-62, 48 h
# HOP-92 = assay: Growth inhibition of human HOP92 cells after 48 hrs by sulforhodamine B assay; assay type: functional; conditions: HOP-92, 48 h
# NCI-H226 = assay: Growth inhibition of human NCI-H226 cells after 48 hrs by sulforhodamine B assay; assay type: functional; conditions: NCI-H226, 48 h
# NCI-H23 = assay: Growth inhibition of human NCI-H23 cells after 48 hrs by sulforhodamine B assay; assay type: functional; conditions: NCI-H23, 48 h
# NCI-H322M = assay: Growth inhibition of human NCI-H322M cells after 48 hrs by sulforhodamine B assay; assay type: functional
# NCI-H460 = assay: Growth inhibition of human NCI-H460 cells after 48 hrs by sulforhodamine B assay; assay type: functional; conditions: NCI-H460, 48 h
# NCI-H522 = assay: Growth inhibition of human NCI-H522 cells after 48 hrs by sulforhodamine B assay; assay type: functional; conditions: NCI-H522, 48 h
# COLO 205 = assay: Growth inhibition of human COLO205 cells after 48 hrs by sulforhodamine B assay; assay type: functional; conditions: COLO 205, 48 h
compound,measurement,setting,value
C[C@H]1[C@H](OCCCCO[C@H]2O[C@@H]3O[C@@]4(C)CC[C@H]5[C@H](C)CC[C@@H]([C@H]2C)[C@@]35OO4)O[C@@H]2O[C@@]3(C)CC[C@H]4[C@H](C)CC[C@@H]1[C@@]24OO3,GI50,CCRF-CEM,15 nM
same,GI50,HL-60,12 nM
same,GI50,K562,12 nM
same,GI50,MOLT-4,8 nM
same,GI50,[1],< 5 nM
same,GI50,SR,< 5 nM
same,GI50,A549,35 nM
same,GI50,HCC 2998,365 nM
same,GI50,HCT-116,10 nM
same,GI50,HCT-15,7 nM
same,GI50,HT-29,15 nM
same,GI50,KM12,12 nM
same,GI50,SW-620,16 nM
same,GI50,SF-268,5620 nM
same,GI50,SNB-19,869 nM
same,GI50,SNB-75,8050 nM
same,GI50,U-251,25 nM
same,GI50,LOX IMVI,8 nM
same,GI50,M14,148 nM
same,GI50,Malme-3M,353 nM
same,GI50,SK-MEL-2,318 nM
same,GI50,SK-MEL-28,8820 nM
same,GI50,SK-MEL-5,115 nM
same,GI50,UACC-257,69 nM
same,GI50,UACC-62,215 nM
same,GI50,IGROV-1,381 nM
same,GI50,OVCAR-3,203 nM
same,GI50,OVCAR-4,148 nM
same,GI50,OVCAR-5,65 nM
same,GI50,OVCAR-8,47 nM
same,GI50,SK-OV-3,7210 nM
same,GI50,786-0,107 nM
same,GI50,A498,5770 nM
same,GI50,ACHN,31 nM
same,GI50,CAKI-1,6560 nM
same,GI50,RXF 393,9800 nM
same,GI50,SN12C,210 nM
same,GI50,TK-10,23 nM
same,GI50,UO-31,22 nM
same,GI50,PC-3,11 nM
same,GI50,MCF7,43 nM
same,GI50,NCI/ADR-RES,214 nM
same,GI50,MDA-MB-231,5070 nM
same,GI50,[2],133 nM
same,GI50,MDA-MB-435,18 nM
same,GI50,MDA-N,58 nM
same,GI50,BT-549,220 nM
same,GI50,T47D,< 5 nM
same,pIC50,Plasmodium falciparum [3],4.75
same,selectivity ratio,[4],43
same,pIC50,Plasmodium falciparum [5],4.85
same,selectivity ratio,[6],> 54
same,CC50 at 48 h,[7],> 764000 nM
same,GI50,EKVX,44 nM
same,GI50,HOP-62,42000 nM
same,GI50,HOP-92,6400 nM
same,GI50,NCI-H226,34 nM
same,GI50,NCI-H23,20 nM
same,GI50,NCI-H322M,16000 nM
same,GI50,NCI-H460,4230 nM
same,GI50,NCI-H522,16 nM
same,GI50,COLO 205,12 nM

# Source: ChEMBL document CHEMBL1140860, “Synthesis and evaluation of dihydroartemisinin and dihydroartemisitene acetal dimers showing anticancer and antiprotozoal activity” (Bioorg Med Chem, 2009)
